Results: patent publication US10227357B2, “Compounds and methods for kinase modulation, and indications therefor” (Plexxikon Inc., priority 2012, dated 2019)

Key:
[1] = molecular target: T1, c-kit mutant D816V (Homo sapiens, UniProt P10721, D816V/DEL694-753); assay: c-Kit mutant D816V biochemical assay, AlphaScreen; details: c-kit D816V biochemical inhibitory activity; read-out: Biochemical activity (IC50 μM) Kit D816V
T1 construct: residues 551-934, kinase insertion domain residues 694-753 deleted; 6x-histidine (N); made in house; host or cells: E. coli Arctic Express (DE3) RIL (Stratagene)
T1 sequence (P10721 with tags, fused parts or gaps DEL694-753/D816V): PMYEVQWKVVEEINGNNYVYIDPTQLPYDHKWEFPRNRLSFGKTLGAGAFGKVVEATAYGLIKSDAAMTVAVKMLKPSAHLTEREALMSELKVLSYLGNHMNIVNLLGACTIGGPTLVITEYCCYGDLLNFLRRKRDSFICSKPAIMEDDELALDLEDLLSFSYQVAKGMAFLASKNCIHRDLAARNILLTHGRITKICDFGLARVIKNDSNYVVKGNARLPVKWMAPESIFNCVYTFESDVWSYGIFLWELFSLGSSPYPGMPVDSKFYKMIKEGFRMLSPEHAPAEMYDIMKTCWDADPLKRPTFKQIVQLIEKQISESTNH
In short: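 Eight-point, threefold compound series incubated 30 min at room temperature with E. coli-produced D816V kinase, 10 μM ATP, Mg2+/Mn2+ HEPES buffer pH 7.2 and 5% DMSO. After EDTA stop, streptavidin and anti-phosphotyrosine (PY20) AlphaScreen beads gave the read-out, and IC50 was fitted from the concentration–signal curve.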

[2] = molecular target: T2, c-kit kinase (Homo sapiens, UniProt P10721); assay: c-Kit biochemical assay, AlphaScreen, 10 μM ATP; details: c-kit biochemical inhibitory activity; read-out: Biochemical activity (IC50 μM) Kit
T2 construct: The c-kit (or kinase domain thereof) is an active kinase in AlphaScreen; poly-Histidine tag (in-house protein only) (cleaved yes); host or cells: E. coli BL21(DE3)RIL, co-expressed with PTP1B
T2 sequence (P10721 26-976): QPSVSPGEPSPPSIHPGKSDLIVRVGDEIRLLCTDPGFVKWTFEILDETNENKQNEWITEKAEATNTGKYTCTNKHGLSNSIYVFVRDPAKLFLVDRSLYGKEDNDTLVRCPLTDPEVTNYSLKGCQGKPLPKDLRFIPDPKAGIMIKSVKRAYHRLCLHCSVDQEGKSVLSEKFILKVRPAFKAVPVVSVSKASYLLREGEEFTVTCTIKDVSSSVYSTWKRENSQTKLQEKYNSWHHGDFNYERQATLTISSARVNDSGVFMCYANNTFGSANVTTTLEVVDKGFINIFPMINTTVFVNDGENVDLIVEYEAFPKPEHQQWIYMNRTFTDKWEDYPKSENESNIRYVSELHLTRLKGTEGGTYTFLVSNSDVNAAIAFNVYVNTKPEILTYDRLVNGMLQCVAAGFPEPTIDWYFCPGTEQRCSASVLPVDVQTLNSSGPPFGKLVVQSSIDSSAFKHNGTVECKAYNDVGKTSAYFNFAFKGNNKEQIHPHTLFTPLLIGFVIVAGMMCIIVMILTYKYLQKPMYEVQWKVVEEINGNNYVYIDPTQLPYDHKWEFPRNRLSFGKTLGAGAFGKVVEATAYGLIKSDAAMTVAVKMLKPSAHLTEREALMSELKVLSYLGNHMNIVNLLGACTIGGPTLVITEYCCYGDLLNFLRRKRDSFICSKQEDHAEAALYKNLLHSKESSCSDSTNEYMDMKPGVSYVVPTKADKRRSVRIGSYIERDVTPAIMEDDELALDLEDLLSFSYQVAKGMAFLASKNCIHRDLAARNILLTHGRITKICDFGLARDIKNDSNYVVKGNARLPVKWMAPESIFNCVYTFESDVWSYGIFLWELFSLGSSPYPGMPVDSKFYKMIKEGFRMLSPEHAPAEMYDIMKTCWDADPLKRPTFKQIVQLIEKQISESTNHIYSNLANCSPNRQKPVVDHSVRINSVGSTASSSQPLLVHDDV
In short: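 His-tagged c-Kit expressed in E. coli with co-expressed PTP1B (dephosphorylated), tag removed; 0.1 ng per reaction with biotinylated-peptide substrate in 50 mM HEPES pH 7.2, 5 mM MgCl2, 5 mM MnCl2, 5% DMSO, 10 μM ATP, 1 h at room temperature. Phosphorylation detected by AlphaScreen (streptavidin donor, PY20 acceptor beads); IC50 from 8-point 1:3 dilution series.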

Structure (SMILES) | IC50 [1] [µM] | IC50 [2] [µM]
C[C@H](NC(=O)N1CCN(c2ncnc3[nH]c(-c4cnn(C)c4)cc23)CC1)c1ccc(Cl)cc1 [P-0095, N-[(1S)-1-(4-chlorophenyl)ethyl]-4-[6-(1-methylpyrazol-4-yl)-7H-pyrrolo[2,3-d]pyrimidin-4-yl]piperazine-1-carboxamide] | 0.0001 to 1 | 0.0001 to 1
Cn1cc(-c2cc3c(N4CCN(C(=O)Nc5ccc(F)cc5)CC4)ncnc3[nH]2)cn1 [P-0096, N-(4-fluorophenyl)-4-[6-(1-methylpyrazol-4-yl)-7H-pyrrolo[2,3-d]pyrimidin-4-yl]piperazine-1-carboxamide] | 0.0001 to 1 | 0.0001 to 1
Cn1cc(-c2cc3c(N4CCN(C(=O)NCc5ccc(Cl)cc5)CC4)ncnc3[nH]2)cn1 [P-0097, N-[(4-chlorophenyl)methyl]-4-[6-(1-methylpyrazol-4-yl)-7H-pyrrolo[2,3-d]pyrimidin-4-yl]piperazine-1-carboxamide] | 0.0001 to 1 | 0.0001 to 1
O=C(NS(=O)(=O)c1ccc(Cl)cc1)N1CCN(c2ncnc3[nH]c(-c4ccc(F)cc4)cc23)CC1 [P-0098, N-(4-chlorophenyl)sulfonyl-4-[6-(4-fluorophenyl)-7H-pyrrolo[2,3-d]pyrimidin-4-yl]piperazine-1-carboxamide] | 1 to 10 | 1 to 10
NS(=O)(=O)c1ccc(-c2cc3c(N4CCN(C(=O)NCc5ccc(F)cc5)CC4)ncnc3[nH]2)cc1 [P-0099, N-[(4-fluorophenyl)methyl]-4-[6-(4-sulfamoylphenyl)-7H-pyrrolo[2,3-d]pyrimidin-4-yl]piperazine-1-carboxamide] | 0.0001 to 1 | 1 to 10
NS(=O)(=O)c1ccc(-c2cc3c(N4CCN(C(=O)Nc5ccc(OC(F)(F)F)cc5)CC4)ncnc3[nH]2)cc1 [P-0100, 4-[6-(4-sulfamoylphenyl)-7H-pyrrolo[2,3-d]pyrimidin-4-yl]-N-[4-(trifluoromethoxy)phenyl]piperazine-1-carboxamide] | 1 to 10 | 0.0001 to 1
O=C(NCc1ccc(F)cc1)N1CCN(c2ncnc3[nH]c(-c4ccncc4)cc23)CC1 [P-0101, N-[(4-fluorophenyl)methyl]-4-[6-(4-pyridyl)-7H-pyrrolo[2,3-d]pyrimidin-4-yl]piperazine-1-carboxamide] | 0.0001 to 1 | 1 to 10
O=C(Nc1ccc(OC(F)(F)F)cc1)N1CCN(c2ncnc3[nH]c(-c4ccncc4)cc23)CC1 [P-0102, 4-[6-(4-pyridyl)-7H-pyrrolo[2,3-d]pyrimidin-4-yl]-N-[4-(trifluoromethoxy)phenyl]piperazine-1-carboxamide] | 1 to 10 | 0.0001 to 1
Cc1ccc(-c2cc3c(N4CCN(C(=O)NCc5ccc(F)cc5)CC4)ncnc3[nH]2)cn1 [P-0103, N-[(4-fluorophenyl)methyl]-4-[6-(6-methyl-3-pyridyl)-7H-pyrrolo[2,3-d]pyrimidin-4-yl]piperazine-1-carboxamide] | 0.0001 to 1 | 1 to 10
COc1cc(-c2cc3c(N4CCN(C(=O)NCc5ccc(F)cc5)CC4)ncnc3[nH]2)ccn1 [P-0104, N-[(4-fluorophenyl)methyl]-4-[6-(2-methoxy-4-pyridyl)-7H-pyrrolo[2,3-d]pyrimidin-4-yl]piperazine-1-carboxamide] | 1 to 10 | 10 to 200
NS(=O)(=O)c1cccc(-c2cc3c(N4CCN(C(=O)NCc5ccc(F)cc5)CC4)ncnc3[nH]2)c1 [P-0105, N-[(4-fluorophenyl)methyl]-4-[6-(3-sulfamoylphenyl)-7H-pyrrolo[2,3-d]pyrimidin-4-yl]piperazine-1-carboxamide] | 0.0001 to 1 | 1 to 10
COc1ncc(-c2cc3c(N4CCN(C(=O)NCc5ccc(F)cc5)CC4)ncnc3[nH]2)cn1 [P-0106, N-[(4-fluorophenyl)methyl]-4-[6-(2-methoxypyrimidin-5-yl)-7H-pyrrolo[2,3-d]pyrimidin-4-yl]piperazine-1-carboxamide] | 1 to 10 | 1 to 10
